What was measured:
δ-opioid receptor [1] = target: T1, δ-opioid receptor (Mus musculus, UniProt P32300); test: δ-opioid antagonist activity against DPDPE in mouse vas deferens (MVD); conditions: against DPDPE; test compound 100 nM, 20 min; read-out: Ke
T1 construct: from tissue; host or cells: vas deferens of male ddy mice
Outline: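 Vas deferens from male ddy mice in Krebs-Henseleit at 37 °C (5% CO2/95% O2), field-stimulated at 0.1 Hz, 5.0 ms, isometric contraction recorded. IC50 dose ratio, Ke and Schild pA2 derived.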

[2] = system: delayed type hypersensitivity; test: Mouse Delayed Type Hypersensitivity Reaction Suppression Test-1 (SRBC); assay type: in vivo; conditions: SRBC sensitization; subcutaneous, everyday from 3 days before sensitization, totally 8 days; BALB/c
Experimental: BALB/c mice (male, 7 weeks old) were used. The mice were classified into groups depending on the body weight, each group consisting of 7-8 mice. Each of the mice was sensitized by subcutaneously administering […] of SRBC (8×10^8 in saline) on the heel of the left hing leg. On day 4 from the sensitization, 25 μl of SRBC (8×10^9 in saline) was subcutaneously administered on the right footpad so as to induce delayed type hypersensitivity. The difference in the thicknesses of the right footpad before the induction of reaction and 24 hours after the induction of the reaction was employed as an index of the degree of the reaction.
The test compound was dissolved in 10% DMSO-water and was subcutaneously administered everyday from 3 days before the sensitization to the day of induction of the reaction, totally 8 days. In the control group, 10% DMSO-water alone was administered in the same manner. The volume of administration was 5 ml/kg in both study groups and in the control group.
The % suppression of the delayed type hypersensitivity reaction was calculated according to the following equation: [formula]
wherein A means the difference in the thickness of the right hind leg before and after the reaction in control group, and B means the difference in the thickness of the right hind leg before and after the reaction in the group to which the test compound was administered.

[3] = system: Cerebral cortex nerve cells; test: Brain cell-protecting action, MTT method; assay type: cell-based, rat; conditions: 10 μM
Experimental: The brain cell-protecting action was examined by MTT [3-(4,5-dimethylthiazol-2-yl)-2,5-diphenyltetrazolium bromide] method. MTT yields a dark blue formazan compound by mitochondria in living cells. This compound was dissolved in isopropanol and absorbance at 570 nm was measured, thereby measuring the number of living cells.
Cerebral cortex nerve cells of fetal rats of 17 days old were placed in wells of a 96-well plate at a population density of 1×10^5 cells/cm^2. Then 10 μM of a test compound was added and the cells were cultured in 200 μl of mixed medium of D-MEM/F.12 (1:1) for 3 days (37° C., 5%CO2). In a control group, the medium alone was added Then […] of MTT solution in PBS (6mg/ml) was added and the mixture was allowed to react for 3 hours (37° C., 5% CO2). After removing the culture medium, 100 μl of isopropanol was added and the absorbance was measured.
The ratio of the absorbances of the study group and the control group was employed as an index of brain cell-protecting action.

δ-opioid receptor [4] = target: T1, δ-opioid receptor; test: Change in δ-antagonist activity against DPDPE with time in mouse vas deferens (MVD); conditions: for Ratio of IC50 Values / Kb: 173 and NTI at 20 nM, 174 and 5'-NTII at 100 nM; for Kb: read-out: Ke
Experimental: In this experiment, ddy male mice were used. In a Magnus' tube which is filled with Krebes-Henseleit solution (NaCl […]; KCl 4.7 mM; CaCl2 2.5 mM; KH2 PO4 1.1 mM; NaHCO3 25 mM; glucose 11 mM) kept at 37° C., and into which an atmosphere consisting of 5% carbon dioxide and 95% oxygen was flown, vas deferens taken from the animals was suspended. Electric stimulation was applied through ring-shaped platinum electrodes mounted on the upper and lower portions of the tube at a frequency of 0.1 Hz and 5.0 mS duration. The contraction of the tissue was recorded on polygraph using isometric transducer.
Then 100 nM of the test compound was added. Twenty minutes later, DPDPE was begun to be added cumulatively. The ratio of IC50 values in the presence and absence of the test compound, Ke value (the molar concentration of the test compound necessary for translating the dose-effect curve to the curve of twice dose) and pA2 value were determined. The pA2 value was determined by the method of Shild et al (Shild, H. O., Br. J. Pharmac. Chamotehr., 4, 277 (1949)). That is, the logarithm of the test compound (log[test compound]) was plotted along the abscissa and the logarithm of the value obtained by subtracting 1 from the ratio of IC50 values was plotted in the presence and absence of the test compound [log(dose ratio-1)] along the ordinate. The pA2 value was determined from the value on the abscissa when the value on the ordinate of the obtained line is 0.
Using MVD, the antagonist activities of compounds 173 and 174 against DPDPE were determined. The ratio of IC50 values, Ke values and pA2 values at 15 minutes, 30 minutes and 1 hour from the addition of the test compounds were calculated. Since the concentrations of the test compounds are different, the reciprocals of Ke values were plotted in FIGS. 1 and 2.

[5] = system: delayed type hypersensitivity; test: Mouse Delayed Type Hypersensitivity Reaction Suppression Test-2 (donor spleen cells, subcutaneous administration); assay type: in vivo; conditions: C57BL/6 spleen cells; subcutaneous everyday from day of sensitization, totally 8 days; BALB/c
From the text: BALB/c mice (male, 7 weeks old) were used, and each group consisted of 4-5 mice. Spleen cells (1×10^7 ) obtained from a donor mouse (C57BL/6) was subcutaneously administered to sensitize the mice. On Day 7 from the sensitization, the spleen cells (5×10^6) of the donor were subcutaneously administered on the right hing leg and spleen cells (5×10^6) obtained from a mouse of the same line as the recipient mice were subcutaneously administered on the left footpad. Twenty four hours later, the thicknesses of the right and left footpads were measured with a dial thickness gage, and the difference in thicknesses of the right and left footpads before the induction of the reaction and 24 hours after the induction of the reaction was employed as the index of the degree of the reaction.
The test compound was dissolved in 10% DMSO-water and was subcutaneously administered everyday from the day of sensitization to the day of induction of the reaction, totally 8 days. In the control group, 10% DMSO-water alone was administered in the same manner. The volume of administration was 10 ml/kg in both study groups and in the control group. Delayed Type Hypersensitivity Reaction=(thickness of right foodpad after induction-thickness of right footpad before induction)-(thickness of […] before induction) [formula]
wherein C means delayed type hypersensitivity reaction of the group to which the test compound was administered and D means the delayed type hypersensitivity reaction of the group to which vehicle was administered.

T1 sequence (P32300 whole entry): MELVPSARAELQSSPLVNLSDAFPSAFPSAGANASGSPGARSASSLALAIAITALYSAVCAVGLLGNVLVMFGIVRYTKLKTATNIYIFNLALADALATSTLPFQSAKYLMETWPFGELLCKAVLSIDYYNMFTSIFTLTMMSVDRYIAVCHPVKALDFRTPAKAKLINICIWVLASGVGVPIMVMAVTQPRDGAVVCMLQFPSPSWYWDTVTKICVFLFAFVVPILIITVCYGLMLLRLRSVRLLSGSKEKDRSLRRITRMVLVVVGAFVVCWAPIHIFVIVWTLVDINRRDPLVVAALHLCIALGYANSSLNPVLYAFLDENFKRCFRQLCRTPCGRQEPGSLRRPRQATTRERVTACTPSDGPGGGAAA

With `Oc1ccc2c3c1O[C@H]1c4[nH]c5ccccc5c4C[C@@]4(O)[C@@H](C2)N(CC2CC2)CC[C@]314` [NTI, reference compound] as the compound, how does the Kb (δ-opioid receptor [1]) read?
Its Kb is 210 pM.

What about the “% Suppression” value [2] of the same compound?
The value was “did not suppress”.

What about the “brain cell-protecting action (in words)” value ([3]; MTT) of the same compound?
The value was “has brain cell-protecting action”.

What about the “Ratio of Absorbances” value ([3]; study group / control group, 570 nm, 3 days culture) of the same compound?
The value was 4.21.

What about the “Ratio of IC50 Values” (δ-opioid receptor [4]; 15 min) of the same compound?
The value was 96.3.

And the Kb (δ-opioid receptor [4]; 15 min)?
The Kb was 210 pM.

And the “change of antagonist activity with time (in words)” value (δ-opioid receptor [4]; 15 min to 1 hour)?
Its value is “did not change”.

And the “Ratio of IC50 Values” (δ-opioid receptor [4]; 30 min)?
Its value is 95.6.

And the Kb (δ-opioid receptor [4]; 30 min)?
Its Kb is 210 pM.

What about the “Ratio of IC50 Values” (δ-opioid receptor [4]; 60 min) of the same compound?
Its value is 83.7.

What about the Kb (δ-opioid receptor [4]; 60 min) of the same compound?
Its Kb is 240 pM.

What about the “% Suppression” value [5] of the same compound?
Its value is 60%.

From patent US6291470A, “Indole derivatives process for producing the same and medicinal uses of the same” (Toray Industries, Inc., priority 1992, dated 2001)
